Measured values: publication PMC9048745, “Physicochemical investigation of a novel curcumin diethyl γ-aminobutyrate, a carbamate ester prodrug of curcumin with enhanced anti-neuroinflammatory activity” (PLoS ONE, 2022)

What was measured:
[1] = test system: BV-2 microglial cells; test: Cytotoxicity (MTT assay); assay type: cell-based, murine; conditions: BV-2 cells, 24 h
Description: BV-2 microglial cells were cultured in DMEM supplemented with 10% fetal bovine serum, 2 mM L-glutamine, 1% penicillin/streptomycin (100 units/mL penicillin and 100 μg/mL streptomycin) at 37°C in 5% CO2. BV-2 microglial cells were plated in a 24-well plate at a density of 2 × 10^5 cells/well for 24 h. Various concentrations at 0, 1.25, 2.5, 5, 10, or 20 μM of curcumin or CUR-2GE were determined for a non-toxic concentration. After 24 h, cell viability was assessed by an MTT assay. The media was removed and replaced with an MTT solution in PBS (0.5 mg/mL). After 3-h incubation, the MTT solution was discarded, and formazan crystals formed after the reaction was dissolved in DMSO. The absorbance was then read at 540 nm using a microplate reader (CLARIOstar®, BMG Labtech, Ortenberg, Germany). The percentage of cell viability was expressed relative to the control cells. In addition, the cell viability of BV-2 microglial cells treated with LPS and a combination of LPS and the test compounds was also determined.

[2] = Identification of incomplete hydrolytic products of CUR-2GE (UPLC-MS/MS); assay type: physicochemical; conditions: buffer pH 1.2, 37°C, 24 h; ND = not detected
Description: The incomplete hydrolytic products of CUR-2GE were identified in buffers (pH 1.2, 4.5, 6.8 and 7.4) and human plasma. For hydrolysis in the buffer solutions, the stock solution of CUR-2GE at 200 μg/mL was diluted with a pre-incubated buffer in a vial at 37°C to obtain a final concentration at 10 μg/mL. Samples in buffers pH 1.2 and 4.5 were subsequently incubated at 37°C for 24 h while those in buffers pH 6.8 and 7.4 were incubated at 37°C for 7 min. For hydrolysis in human plasma, the stock solution of CUR-2GE at 100 μg/mL in the diluent was prepared and diluted with pre-incubated human plasma at 37°C for 5 min to obtain a final concentration of 5 μg/mL. The sample was incubated at 37°C for 1 h and an aliquot of 300 μL was added with 300 μL of acetonitrile to stop the reaction. The reaction mixture was then centrifuged at 4°C at 14,000 rpm for 30 min. The supernatant was analyzed using UPLC-MS/MS described below. CUR-2GE, CUR-1GE and curcumin standards were prepared at 10 μg/mL in diluent (2% acetic acid in water: acetonitrile (80: 20, v/v)) and were subjected to UPLC-MS/MS analysis. The retention times and MS/MS spectra of CUR-2GE and its hydrolytic products in buffers and human plasma were compared with those of the standards. The UPLC-MS/MS approach was modified from previous studies. […]

[3] = set-up: method as in PMID 29678124, PMID 25923809, PMID 27758710; conditions: practically insoluble = <0.1 mg/mL; cited from earlier work
[4] = set-up: method as in PMID 9278892; conditions: cited from earlier work

curcumin
non-toxic concentrations (no cytotoxicity) [1]: ≤ 10 µM | detection by UPLC-MS/MS after incubation of CUR-2GE [2]: not detected | USP solubility classification [3]: practically insoluble | half-life in human plasma, previously reported [4]: 8 h
